# Reference: publication PMC4002244, “ACE2 deficiency increases NADPH‐mediated oxidative stress in the kidney” (Physiological Reports, 2014)
# What was measured:
# [1] = target: T1, ACE2 (Mus musculus, UniProt Q8R0I0); assay: Ex vivo Ang II degradation by kidney cortex lysates with ACE2 inhibitor; format: biochemical; details: WT lysates (6 μg protein, n = 5), MLN-4760 10^-6 mol/L, Ang II 10^-9 mol/L, PBS pH 7.4 with 5 μmol/L ZnCl2, 37°C, up to 24 h, Ang II by ELISA; P < 0.05 vs. WT without MLN-4760; similar to ACE2KO
# T1 construct: from tissue; host or cells: kidney cortex of wild-type C57BL/6 mice (littermates of the ACE2KO mice)
# T1 sequence (Q8R0I0 18-805): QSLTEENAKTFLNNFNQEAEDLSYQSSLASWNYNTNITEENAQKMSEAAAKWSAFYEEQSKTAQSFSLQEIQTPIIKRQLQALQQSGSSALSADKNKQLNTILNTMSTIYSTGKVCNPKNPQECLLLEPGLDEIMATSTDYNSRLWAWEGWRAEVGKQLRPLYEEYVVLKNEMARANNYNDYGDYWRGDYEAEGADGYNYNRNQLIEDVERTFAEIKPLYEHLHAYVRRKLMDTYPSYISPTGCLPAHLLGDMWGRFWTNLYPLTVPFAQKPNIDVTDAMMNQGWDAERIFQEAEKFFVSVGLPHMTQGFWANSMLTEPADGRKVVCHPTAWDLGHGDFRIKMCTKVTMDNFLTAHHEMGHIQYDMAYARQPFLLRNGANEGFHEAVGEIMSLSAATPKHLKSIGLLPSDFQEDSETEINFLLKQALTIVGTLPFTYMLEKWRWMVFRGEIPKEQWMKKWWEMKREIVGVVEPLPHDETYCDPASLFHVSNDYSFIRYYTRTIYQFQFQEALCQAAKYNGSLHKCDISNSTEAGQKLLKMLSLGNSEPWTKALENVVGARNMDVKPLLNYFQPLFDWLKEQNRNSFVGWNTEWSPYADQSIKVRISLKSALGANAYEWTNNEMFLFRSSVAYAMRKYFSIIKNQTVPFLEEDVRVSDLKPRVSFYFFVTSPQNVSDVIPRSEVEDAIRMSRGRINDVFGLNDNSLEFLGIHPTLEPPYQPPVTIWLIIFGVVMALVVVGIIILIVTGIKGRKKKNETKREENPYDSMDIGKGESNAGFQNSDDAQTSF
# Experimental: (§1) Kidney cortex lysates (from ACE2 KO and WT mice) corresponding to 6 μg of total protein were individually incubated with 10^−9mol/L angiotensin II (Sigma‐Aldrich, St. Louis, MO) by constant shaking for up to 24 h at 37°C in PBS pH 7.4 containing 5 μmol/L ZnCl2. The incubation was performed with or without addition of the specific ACE2 inhibitor, MLN‐4760 (10^−6mol/L). Following the incubation, samples were diluted 1/5 in EDTA‐containing buffer (0.1 mol/L phosphate buffer, pH 7.4 containing 0.15 mol/L NaCl, 1 mmol/L EDTA, 0.1% BSA) and immediately frozen. The quantity of Ang II in the diluted samples was measured using enzyme‐linked immunosorbent assay kits (SPIBio, Cayman Chemical). Angiotensin quantity in each sample was expressed as a percentage ratio of the Ang remaining after a given incubation time to the initial Ang load (100%).
# [2] = Ex vivo degradation of exogenous Ang II in kidney cortex lysates; format: in vitro ADME, mouse; details: 6 μg protein, Ang II 10^-9 mol/L, PBS pH 7.4 with 5 μmol/L ZnCl2, 37°C, ELISA
# Experimental: as §1
# [3] = tested on: kidney cortex NADPH oxidase activity; assay: Kidney cortex NADPH oxidase activity (lucigenin chemiluminescence) in ACE2KO mice after angiotensin receptor blockade; format: in vivo, mouse; details: for Kidney cortex NADPH oxidase activity, percent of WT controls: male ACE2KO C57BL/6 mice, 2 weeks
# Experimental: NADPH oxidase activity in kidney cortex was measured using lucigenin (5 μmol/L) and NADPH (100 μmol/L) as previously described (Block et al. 2007). Light emission was recorded every 1 min over a 10‐min period at room temperature in a 20/20^n luminometer (Turner Biosystems, Sunnyvale, CA). Superoxide anion production was expressed as relative chemiluminescence (light) units (RLU)/μg protein. There was no measurable activity in the absence of NADPH. Protein content was measured using the BCA protein assay reagent (Pierce, Rockford, IL).
# ACE2KO and control mice at the age of 20–30 weeks were treated with losartan (Triangle Compounding Pharmacy, Cary, NC) or placebo for 2 weeks. Losartan was administered to ACE2KO at two doses: 10 mg/kg/day (n = 4) and 30 mg/kg/day (n = 5) in drinking water in two separate experiments. Another group of ACE2KO (n = 6) and WT controls (n = 5 and n = 10) were given vehicle drug, with similar taste and consistency. Water bottles were weighed daily to document accurate drug consumption. At the end of 2 weeks of treatment with losartan, we proceeded to measure markers of oxidative stress as described above.
# A separate group of male ACE2 knockout mice at 35 weeks of age underwent either sham operation (n = 8) or osmotic minipump (Alzet 1002) implantation to infuse the AT2 receptor blocker, PD123319 (2 mg/kg/day, n = 8) for 14 days. Pumps were implanted subcutaneously on the back between the shoulder blades and hips while animals were anesthetized by inhalation of isoflurane anesthetic. At the end of 2 weeks of treatment with PD123319, we proceeded to measure markers of oxidative stress as described above.
compound,measurement,setting,value
CC(C)C[C@H](N[C@@H](Cc1cncn1Cc1cc(Cl)cc(Cl)c1)C(=O)O)C(=O)O [MLN-4760],Effect of co-incubation on Ang II degradation rate by WT kidney cortex lysates,[1],significant decrease in Ang II degradation rate
"CC[C@H](C)[C@H](NC(=O)[C@H](Cc1ccc(O)cc1)NC(=O)[C@@H](NC(=O)[C@H](CCCNC(=N)N)NC(=O)[C@@H](N)CC(=O)O)C(C)C)C(=O)N[C@@H](Cc1cnc[nH]1)C(=O)N1CCC[C@H]1C(=O)N[C@@H](Cc1ccccc1)C(=O)O [Ang II, angiotensin II]",Ang II degradation by WT versus ACE2KO kidney cortex lysates (in words),"[2]; 6 and 24 h of incubation, n = 5 per group, P < 0.05",kidney lysates from WT mice degrade significantly more Ang II than the lysates obtained from ACE2KO
same,metabolised,"[2]; mouse, kidney cortex lysates (ACE2 KO, with MLN-4760 (ACE2 inhibitor, 10^-6 mol/L) in the WT lysates), lysates of ACE2 KO or WT + MLN-4760 (10^-6 mol/L), constant shaking, up to 24 h, n = 5, read-out: Proportion of Ang II degraded in kidney cortex lysates despite the lack of ACE2",~50%
Cc1cc(Cn2cnc3c2C[C@@H](C(=O)O)N(C(=O)C(c2ccccc2)c2ccccc2)C3)ccc1N(C)C [PD123319],"Kidney NADPH oxidase activity, percent of sham-operated ACE2KO mice","[3]; male ACE2KO mice, 35 weeks old, PD123319 2 mg/kg/day subcutaneous osmotic minipump, 14 days, n = 8, sham-operated ACE2KO 100 ± 21%, P = 0.541, mean ± SEM, SEM",83 ± 17%
CCCCc1nc(Cl)c(CO)n1Cc1ccc(-c2ccccc2-c2nn[nH]n2)cc1 [losartan],Effect on kidney NADPH oxidase activity in ACE2KO (in words),"[3]; ACE2KO mice, losartan 30 mg/kg/day",normalization of NADPH oxidase activity
same,"Kidney cortex NADPH oxidase activity, percent of WT controls","[3]; losartan 10 mg/kg/day in drinking water, n = 4, vehicle WT 100 ± 20%, P < 0.05, vehicle ACE2KO 181 ± 24%, mean ± SEM, SEM",201 ± 22%
same,"Kidney cortex NADPH oxidase activity, percent of WT controls","[3]; losartan 30 mg/kg/day in drinking water, n = 5, vehicle WT 100 ± 18% (n = 10), P = 0.709, mean ± SEM, SEM",83 ± 29%
